In series [1] the test system is HUVECs. Briefly: NO production in HUVECs. The format is cell-based, human. To be noted: 24 h, mean ± SD. An excerpt:
NO and ET-1 productions in treated cells were obtained by employing human NO and ET-1 assay kits according to the manufacturers' protocol.

Series [2] concerns HUVECs. Briefly: ET-1 secretion of HUVECs. It counts as cell-based, human. To be noted: NE 0.5 μM, 24 h, mean ± SD. On the procedure: The NO and ET-1 contents of HUVECs were determined after a 24 h treatment of ACEi peptides (STAP3, STAP4, STAP7, and STAP11, respectively) ([34]). HUVECs received the plating process in 6-well plates and the treating process with Cap (1 μM), NE (0.5 μM), designed concentrations of ACEi peptides (100, 200, and 400 μM) for 24 h, or treated with both NE (0.5 μM) and 200 μM ACEi peptides for 24 h. NO and ET-1 productions in treated cells were obtained by employing human NO and ET-1 assay kits according to the manufacturers' protocol.

Series [3] relates to HUVECs. Briefly: HUVEC cell viability (MTT assay). The format is cell-based, human. On the procedure: After thawing, HUVECs were maintained in cultured flasks and cultured to confluence in DMEM containing 1% penicillin-streptomycin liquid, supplemented with 10% FBS. HUVECs received the culturing process at 37°C in a humidified 5% CO2 atmosphere ([34]).
The cytotoxicity of STAP3, STAP4, STAP7, and STAP11 on HUVECs was assessed using MTT assay on manufacturer's instructions ([34]). In brief, HUVECs received the incubation in 96-well plates at a density of 0.8 × 10^4 cells per well with 180 μl completed DMEM. Following the confluence of 50–60% in the 96-well plates, cells were treated with 20 μl peptides under-designed concentrations (100, 200, and 400 μM) and further cultured for 24 h at 37°C. Subsequently, cells were added with 20 μL MTT solutions (5 mg/mL) and incubated for 4 h. Finally, DMSO was added into each well and the absorbance (A) at 490 nm was determined. The cell viability was calculated as:
Cell viability(% of blank control)=(Aexperiment group/Acontrol group)×100.
(Tetrazolium dyes change colour on reduction, which living cells bring about.)

The subject of another series is ACE. To be noted: cited from earlier work; for pIC50: data in the AHTPDB database, read-out: IC50 (ACEi ability). An excerpt: Then, Ser residue, especially its hydroxyl group, should play a vital effect on the ACEi capability of STAP4, STAP7, and STAP11 ([67]). Yust et al. made clear that short peptide sequences ...
Where [4] appears, read: 100, 200 and 400 μM, 24 h, MTT, % of blank control.

pIC50: −log10 of the molar value. Read-outs that look alike come from different tables or passages of the source. Where a SMILES comes first, the peptide text is derived from it.

As to `C[C@H](CS)C(=O)N1CCC[C@H]1C(=O)O` [Cap, captopril], the NO level in the series on HUVECs [1] (Cap 1 μM, positive control) was 65.96 ± 1.83 μmol/gprot. As for `NC[C@H](O)c1ccc(O)c(O)c1` [NE, norepinephrine], the ET-1 secretion in the series on HUVECs [2] was 140.23 ± 5.81 pg/mL. For the same molecule, the NO level with HUVECs [1] (NE 0.5 μM) amounted to 24.25 ± 0.63 μmol/gprot. One may read the cell viability as a read-out of living cells in per cent, often relative to untreated cells. As to `C[C@@H](O)[C@H](N)C(=O)N[C@@H](CCC(=O)O)C(=O)O` [STAP1, Thr-Glu] (H-Thr-Glu-OH), the cell viability in the series with HUVECs [3] (100 µM, SD) came to 108.52 ± 5.19%.

As to `CSCC[C@H](N)C(=O)N[C@@H](CCC(=O)O)C(=O)N[C@@H](CCCCN)C(=O)N[C@@H](CO)C(=O)O` [STAP4, Met-Glu-Lys-Ser] (H-MEKS-OH), in the series on HUVECs [3] (setting [4]), the cell viability entry is listed as “no significant influence on the proliferation of HUVECs”. Take `CSCC[C@H](N)C(=O)N[C@@H](CCCCN)C(=O)N[C@@H](CCCCN)C(=O)N[C@@H](CO)C(=O)O` [STAP7, Met-Lys-Lys-Ser] (H-MKKS-OH): the cell viability entry in the series on HUVECs [3] (setting [4]) was “no significant influence on the proliferation of HUVECs”.

For `CC(C)C[C@H](N)C(=O)N1CCC[C@H]1C(=O)N[C@@H](CCCNC(=N)N)C(=O)N[C@@H](CO)C(=O)O` [STAP11, Leu-Pro-Arg-Ser] (H-LPRS-OH), the cell viability is 91.07 ± 1.36% with HUVECs [3] (400 µM, SD) and “no significant influence on the proliferation of HUVECs” with HUVECs [3] (setting [4]). Turning to EHPVL [ACEi peptide from stone fish], in the series on ACE (peptides from stone fish), the “IC50 (ACEi)” value is 1.68 mg/mL. EVLIQ [ACEi peptide from stone fish]: in the series on ACE (peptides from stone fish), the “IC50 (ACEi)” value is 1.44 mg/mL.

One may read the pIC50 as the IC50 on a negative log10 scale, so that one unit is a factor of ten. On to “IRWCT [ACEi peptide in the AHTPDB database]”, for which, in the series with ACE, the pIC50 is 6.00. In the case of LAPPTM [ACEi peptide from stone fish], in the series on ACE (peptides from stone fish), the “IC50 (ACEi)” value is 1.31 mg/mL. Take “LGPLGHQ [ACEi peptide from skate (Okamejei kenojei)]”: the “IC50 (ACEi)” value in the series on ACE (peptides from Okamejei kenojei) was 3.49 mg/mL; with ACE (peptides from skate), 4.22 mg/mL. As for “MIFPGAGGPEL [ACEi peptide in the AHTPDB database]”, the pIC50 in the series on ACE was 7.52. Take “MVGSAPGVL [ACEi peptide from skate (Okamejei kenojei)]”: the “IC50 (ACEi)” value with ACE (peptides from Okamejei kenojei) and with ACE (peptides from skate) was 3.09 mg/mL in each case.

Take “PYVRYL [ACEi peptide in the AHTPDB database]”: the pIC50 in the series on ACE is 5.72.

On to “RYRP [ACEi peptide from protein hydrolysate of Saurida elongate]”, for which the “IC50 (ACEi)” value with ACE (peptide from Saurida elongate) was 3.35 mg/mL. As for “VFPS [ACEi peptide in the AHTPDB database]”, the pIC50 in the series on ACE was 6.34. “WRKER [ACEi peptide from Antarctic krill]”: in the series on ACE (peptides from Antarctic krill), the “IC50 (ACEi)” value is 3.285 mg/mL.

These data come from article PMC9046991, “Preparation, Characterization, and Cytoprotective Effects on HUVECs of Fourteen Novel Angiotensin-I-Converting Enzyme Inhibitory Peptides From Protein Hydrolysate of Tuna Processing By-Products” (Frontiers in Nutrition, 2022).
